{
  "source": "patent US9017644B2",
  "about": "“Methods of treating autoimmune disorders and/or inflammatory disorders” (priority 2008, dated 2015)",
  "key": {"[1]": {"conditions": "Lewis, rat, in vivo, 18 day", "excerpt": "(§1) The rats were anesthetized and given collagen injections spread over 3 subcutaneous sites on back on day 0 and day 6. […] Rats were weighed on days 0, 3, 6, and 9-18 of the study, and caliper measurements of ankles were taken every day beginning on day 9 (or day 0 of arthritis). After final body weight measurement on day 18, animals were euthanized, blood was drawn for serum (for clinical chemistries) and CBC analysis and tissues were collected. No clinical chemistry or CBC analysis was done for groups 5s and 12s, however these groups were sampled for drug levels for pharmacokinetic analysis.\nComplete Blood Counts (CBC) and Clinical Chemistries were evaluated for each group."}, "[2]": {"tested_on": "developing type II collagen arthritis", "experiment": "Rat collagen arthritis model, treatment alone or in combination with etanercept (Example 5)", "type": "in vivo", "conditions": "for % decrease in ankle diameter verses disease control, drug alone: day 17", "excerpt": "(§2) Rat collagen induced arthritis is an experimental model of polyarthritis that has been widely used for preclinical testing of numerous anti-arthritic agents. Rat type II collagen arthritis results when rats are immunized against homologous or heterologous type II collagen. […] As used herein “significant” means that p≦0.05. Unless specified as “normal control” or “disease control” reference to “animal” means a rat with developing type II collagen arthritis.\nBovine Type II collagen (Sigma) was diluted with 0.1N acetic acid to a concentration of 4 mg/ml. and emulsified with an equal volume of Freund's incomplete adjuvant (Sigma). Female Lewis rats (Charles River) were randomized by weigh into 10 study groups Table 3 identifies the groups that were used for evaluation of efficacy and Table 4 identifies the groups used for evaluation of toxicity.\nAnimals were anesthetized and immunized at the base of the tail and two sites on the back on day 0 and day 6. Animals were weighed on days 0, 3, 9-24. […] Treatment was administered either alone or in combination with etanercept, (1 mg/kg) dosed subcutaneously on days 9, 12 and 15. […] The remaining 4 animals were sacrificed for necropsy on day 16."}, "[3]": {"experiment": "Observation on high dose MTX dosing preparation", "type": "physicochemical", "conditions": "0.75 mg/kg dose preparation"}, "[4]": {"tested_on": "developing type II collagen arthritis", "experiment": "Rat collagen arthritis model, prophylactic IV treatment 3x/week, day 0-16 (Example 3)", "type": "in vivo", "excerpt": "as §2\n(§3) Bovine Type II collagen (Sigma) was diluted with 0.1N acetic acid to a concentration of 4 mg/ml. and emulsified with an equal volume of Freund's incomplete adjuvant (Sigma).\nThe rats were anesthetized and given collagen injections spread over 3 subcutaneous sites on back on day 0 and day 6."}, "[5]": {"tested_on": "developing type II collagen arthritis", "experiment": "Rat collagen arthritis model, dose responsive efficacy, IV or SC 2x/week (Example 4)", "type": "in vivo", "conditions": "IV 2x/week, read-out: average ED50 value for efficacy (AUC+Final Paw Weight)", "excerpt": "as §2, §3, §1"}, "[6]": {"conditions": "batches 70 mg/kg, methotrexate 0.2 mg/kg, FIG. 5"}},
  "data": [
    {"molecule": "CN(Cc1cnc2nc(N)nc(N)c2n1)c1ccc(C(=O)N[C@@H](CCC(=O)O)C(=O)O)cc1", "note": "[MTX, Methotrexate]", "values": [
      {"measurement": "therapeutic index, considering bone marrow suppression at 0.5 mg/kg", "setting": "[1]; 0.5 mg/kg", "value": "less than 2"},
      {"measurement": "dose value for life threatening toxicity (bone marrow suppression)", "setting": "[1]; iv", "value": 0.75, "unit": "mg/kg"},
      {"measurement": "% decrease in ankle diameter verses disease control, drug alone", "setting": "[2]; 0.25 mg/kg PO 2x/week", "value": 52, "unit": "%"},
      {"measurement": "decreases in ankle diameter from disease control, alone or in combination with etanercept", "setting": "[2]; ATI-101 5, 20 and 65 mg/kg, MTX 0.25 mg/kg", "value": "Significant decreases"},
      {"measurement": "behaviour of high dose preparation in solution", "setting": "[3]", "value": "did not remain completely in solution"},
      {"measurement": "inhibition of ankle diameter AUC as compared to disease controls", "setting": "[4]; Batch 1 and Batch 2 70 mg/kg, MTX 0.2 mg/kg, IV 3x/week, 17 day study", "value": 54, "unit": "%"},
      {"measurement": "inhibition of final paw weights as compared to disease controls", "setting": "[4]; Batch 1 and Batch 2 70 mg/kg, MTX 0.2 mg/kg, IV 3x/week, day 17", "value": 46, "unit": "%"},
      {"measurement": "ankle cartilage damage, representative photomicrograph", "setting": "[4]; [6]", "value": "minimal"},
      {"measurement": "ankle pannus and bone destruction, representative photomicrograph", "setting": "[4]; [6]", "value": "minimal"},
      {"measurement": "ankle synovitis, representative photomicrograph", "setting": "[4]; [6]", "value": "moderate"},
      {"measurement": "ED50", "setting": "[5]", "value": 0.25, "unit": "mg/kg"}
    ]},
    {"molecule": "etanercept", "values": [
      {"measurement": "% decrease in ankle diameter verses disease control, drug alone", "setting": "[2]; 1 mg/kg SC days 9, 12, 15", "value": 37, "unit": "%"}
    ]}
  ]
}
